Test results reported in US4228176A, “Thromboxane inhibition with burimamide” (Nelson Research & Development Company, priority 1979, dated 1980).
Like-named read-outs stand apart in the source and are kept apart here.

How the values were obtained:
Thromboxane Synthetase [1] = conditions: cited from earlier work
Thromboxane Biosynthesis = assay: Inhibition of thromboxane biosynthesis; type: biochemical; parameters: % Inhibition of Thromboxane Biosynthesis: unit of the concentration uncertain; conditions: for % INHIBITION (Inhibition of Thromboxane Biosynthesis): concentration of 100 mg/ml (Table 2)
From the text: A comparison of the inhibition of thromboxane biosynthesis between imidazole and Burimamide was made.
A number of structurally related compounds including other H2 blockers were compared for inhibition of thromboxane activity.

H2-receptor = conditions: cited from earlier work
[2] = system: histamineinduced gastric acid secretion; conditions: cited from earlier work
Thromboxane Synthetase [3] = conditions: human platelets; cited from earlier work
[4] = concentration 0.5 (unit uncertain)
[5] = concentration 1 (unit uncertain)
[6] = concentration 2 (unit uncertain)
[7] = concentration 5 (unit uncertain)
[8] = concentration 10 (unit uncertain)
[9] = concentration 20 (unit uncertain)
[10] = concentration 50 (unit uncertain)

Cn1ccnc1 [1-methyl imidazole]
inhibition of thromboxane biosynthesis, in words (Thromboxane Synthetase [1]): potent inhibitor of thromboxane biosynthesis

NCCc1ccccn1 [2-(2-pyridyl) Ethylamine]
% INHIBITION (Inhibition of Thromboxane Biosynthesis) (Thromboxane Biosynthesis): 20%

NCCc1nccs1 [2-(2-thiazolyl) Ethylamine]
% INHIBITION (Inhibition of Thromboxane Biosynthesis) (Thromboxane Biosynthesis): 19%

Cc1[nH]cnc1CCN [4-Methylhistamine]
% INHIBITION (Inhibition of Thromboxane Biosynthesis) (Thromboxane Biosynthesis): 0%

CNC(=S)NCCCCc1c[nH]cn1 [Burimamide, N-methyl-N'-[4-(imidazole-4-yl)butyl] thiourea]
thromboxane biosynthesis inhibition, in words (Thromboxane Biosynthesis): potent, selective blocker of thromboxane biosynthesis | % Inhibition of Thromboxane Biosynthesis (Thromboxane Biosynthesis; concentration 100 mg/ml (Table 1)): 98% | % Inhibition of Thromboxane Biosynthesis (Thromboxane Biosynthesis; [4]): 15% | % Inhibition of Thromboxane Biosynthesis (Thromboxane Biosynthesis; [5]): 21% | % Inhibition of Thromboxane Biosynthesis (Thromboxane Biosynthesis; [6]): 36% | % Inhibition of Thromboxane Biosynthesis (Thromboxane Biosynthesis; [7]): 47% | % Inhibition of Thromboxane Biosynthesis (Thromboxane Biosynthesis; [8]): 58% | % Inhibition of Thromboxane Biosynthesis (Thromboxane Biosynthesis; [9]): 73% | % Inhibition of Thromboxane Biosynthesis (Thromboxane Biosynthesis; [10]): 86% | % INHIBITION (Inhibition of Thromboxane Biosynthesis) (Thromboxane Biosynthesis): 100% | pharmacologic activity at H2-receptor, in words (H2-receptor): H2 -receptor blocker | histamine-induced gastric acid secretion, in words [2]: inhibit histamineinduced gastric acid secretion

CNC(=NC#N)NCCSCc1[nH]cnc1C [Cimetidine]
thromboxane biosynthesis inhibition, in words (Thromboxane Biosynthesis): only minor thromboxane inhibitory activity | % INHIBITION (Inhibition of Thromboxane Biosynthesis) (Thromboxane Biosynthesis): 19%

Clc1cccc(Cl)c1NC1=NCCN1 [Clonidine]
% INHIBITION (Inhibition of Thromboxane Biosynthesis) (Thromboxane Biosynthesis): 0%

CN(C)CCCSC(=N)N [Dimaprit]
% INHIBITION (Inhibition of Thromboxane Biosynthesis) (Thromboxane Biosynthesis): 35%

NCCc1c[nH]cn1 [Histamine]
% INHIBITION (Inhibition of Thromboxane Biosynthesis) (Thromboxane Biosynthesis): 17%

c1c[nH]cn1 [Imidazole]
thromboxane biosynthesis inhibition, in words (Thromboxane Biosynthesis): only compound comparable in inhibition of thromboxane biosynthesis | % Inhibition of Thromboxane Biosynthesis (Thromboxane Biosynthesis; [4]): 0% | % Inhibition of Thromboxane Biosynthesis (Thromboxane Biosynthesis; [5]): 25% | % Inhibition of Thromboxane Biosynthesis (Thromboxane Biosynthesis; [6]): 53% | % Inhibition of Thromboxane Biosynthesis (Thromboxane Biosynthesis; [7]): 68% | % Inhibition of Thromboxane Biosynthesis (Thromboxane Biosynthesis; [8]): 81% | % Inhibition of Thromboxane Biosynthesis (Thromboxane Biosynthesis; [9]): 89% | % Inhibition of Thromboxane Biosynthesis (Thromboxane Biosynthesis; [10]): 88% | inhibition of thromboxane biosynthesis, in words (Thromboxane Synthetase [3]): selective inhibitor of thromboxane biosynthesis

N[C@@H](Cc1c[nH]cn1)C(=O)O [L-Histidine]
% INHIBITION (Inhibition of Thromboxane Biosynthesis) (Thromboxane Biosynthesis): 17%

c1ccc([C@H]2CN3CCSC3=N2)cc1 [Levamisole]
% INHIBITION (Inhibition of Thromboxane Biosynthesis) (Thromboxane Biosynthesis): 6%

CNC(=S)NCCSCc1[nH]cnc1C [Metiamide]
thromboxane biosynthesis inhibition, in words (Thromboxane Biosynthesis): only minor thromboxane inhibitory activity | % INHIBITION (Inhibition of Thromboxane Biosynthesis) (Thromboxane Biosynthesis): 33%

CC(=O)NCCc1c[nH]cn1 [N-acetyl Histamine]
% INHIBITION (Inhibition of Thromboxane Biosynthesis) (Thromboxane Biosynthesis): 26%

CC(=O)N[C@@H](Cc1c[nH]cn1)C(=O)O [N-acetyl Histidine]
% INHIBITION (Inhibition of Thromboxane Biosynthesis) (Thromboxane Biosynthesis): 0%
